Measured values reported in publication PMC5365654, “Cyclic Boronates Inhibit All Classes of β-Lactamases” (Antimicrobial Agents and Chemotherapy, 2017).
Like-named read-outs stand apart in the source and are kept apart here. Values belong to the compound of their own block, whether it stands above or below them.

Tests used:
[1] = system: P. aeruginosa PA12, ST 111; test: Broth microtiter dilution MIC, PA12; assay type: cell-based; settings: Pseudomonas aeruginosa, VIM-2 (B), read-out: MIC (mg/liter) for β-lactam
Procedure: (§1) The in vitro activity of cyclic boronate 2 was assessed using nine clinical isolates carrying multiple β-lactamases (Table 3). The isolates selected included Enterobacteriaceae (E. coli ST 131, Klebsiella pneumoniae ST 258, and Providencia stuartii) producing class A ESBLs (CTX-M-15, CTX-M-27, SHV-5, and VEB-1), serine carbapenemase (KPC-2) and metallo-carbapenemases (VIM-1 and VIM-2), plasmid-mediated AmpC (CMY-2), and/or carbapenem-hydrolyzing OXA-48-like oxacillinases (OXA-181 and OXA-232) in various combinations. The activity against carbapenemase-producing strains of Pseudomonas aeruginosa (VIM-2) and Acinetobacter baumannii (OXA-23) was also investigated. All isolates have previously undergone extensive phenotypic and genotypic characterization ([60]).
(§2) MICs were determined using commercial Sensititre GN4F panels (Thermo Scientific, UK; lot B55051) and Mueller-Hinton II cation-adjusted broth (Oxoid, UK), with and without the addition of cyclic boronate 2 at a fixed concentration of 10 μg/ml. Plates were incubated at 37°C for 18 h and MICs read by eye following the addition of alamarBlue reagent (Trek Diagnostics).

K. pneumoniae KP58 = test: Broth microtiter dilution MIC, KP58; assay type: cell-based; settings: Klebsiella pneumoniae, SHV-11 (A), VIM-4 (B), read-out: MIC (mg/liter) for β-lactam
Procedure: as §1, §2

E. coli EC114, ST 131 = test: Broth microtiter dilution MIC, EC114; assay type: cell-based; settings: Escherichia coli, TEM-1 (A), CTX-M-15 (A), OXA-1 (D), read-out: MIC (mg/liter) for β-lactam
Procedure: as §1, §2

P. stuartii PS71 = test: Broth microtiter dilution MIC, PS71; assay type: cell-based; settings: Providencia stuartii, TEM-1 (A), SHV-5 (A), VEB-1 (A), VIM-1 (B), read-out: MIC (mg/liter) for β-lactam
Procedure: as §1, §2

E. coli EC113, ST 131 = test: Broth microtiter dilution MIC, EC113; assay type: cell-based; settings: Escherichia coli, CTX-M-27 (A), read-out: MIC (mg/liter) for β-lactam
Procedure: as §1, §2

K. pneumoniae KP41 = test: Broth microtiter dilution MIC, KP41; assay type: cell-based; settings: Klebsiella pneumoniae, TEM-1, SHV-1, SHV-5, SHV-11, CTX-M-15 (A), OXA-232 (D), read-out: MIC (mg/liter) for β-lactam
Procedure: as §1, §2

E. coli EC86 = test: Broth microtiter dilution MIC, EC86; assay type: cell-based; settings: CTX-M-15 (A), CMY-4 (C), OXA-181 (D); for MIC: Escherichia coli
Procedure: as §1, §2

K. pneumoniae KP15 = test: Broth microtiter dilution MIC, KP15; assay type: cell-based; settings: Klebsiella pneumoniae, TEM-1 (A), SHV-11 (A), KPC-2 (A), read-out: MIC (mg/liter) for β-lactam
Procedure: as §1, §2

A. baumannii AB14 = test: Broth microtiter dilution MIC, AB14; assay type: cell-based; settings: Acinetobacter baumannii, OXA-23 (D), OXA-51 (D), read-out: MIC (mg/liter) for β-lactam
Procedure: as §1, §2

E. coli EC107, ST 131 = test: Broth microtiter dilution MIC, EC107; assay type: cell-based; settings: Escherichia coli, CTX-M-15 (A), OXA-1 (D), read-out: MIC (mg/liter) for β-lactam
Procedure: as §1, §2

CTX-M-15 = biological target: T1, CTX-M-15 (Escherichia coli, UniProt Q9EXV5); test: FC5 fluorogenic β-lactamase inhibition assay, CTX-M-15; assay type: biochemical; settings: FC5 substrate, read-out: IC50, nM (mean ± SD) for CTX-M-15
T1 construct: hexahistidine (pOPINF, 3C-cleavable) (N, cleaved yes); made in house; host or cells: E. coli BL21(DE3)
T1 sequence (Q9EXV5 entry or part of it): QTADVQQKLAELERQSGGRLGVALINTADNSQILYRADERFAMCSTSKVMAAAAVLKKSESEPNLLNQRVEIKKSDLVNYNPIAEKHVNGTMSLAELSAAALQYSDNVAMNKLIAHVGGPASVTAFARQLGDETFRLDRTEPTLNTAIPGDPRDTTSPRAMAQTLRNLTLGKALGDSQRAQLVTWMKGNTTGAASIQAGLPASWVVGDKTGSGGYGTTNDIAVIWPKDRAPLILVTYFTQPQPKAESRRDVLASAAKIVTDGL
Text: To investigate the extent to which cyclic boronates inhibit class C β-lactamases as well as the important class A ESBL and class D carbapenemase targets, we used a fluorogenic assay ([22]) to screen the cyclic boronates, which we have found to inhibit other β-lactamases ([21]), against them. The β-lactamases used for screening included TEM-1 and CTX-M-15 (class A), the metallo-β-lactamase (MBL) from Bacillus cereus (BcII), Verona integron-encoded metallo-β-lactamase 1 (VIM-1) (class B), AmpC from P. aeruginosa (class C), and OXA-23 and OXA-48 (class D), collectively representing all classes of β-lactamase.
Inhibition assays were carried out using FC5 as a fluorogenic reporter substrate ([22]). Enzyme concentrations and buffers were the same as those employed in steady-state kinetic studies (see Table S2 in the supplemental material). […] The concentration of FC5 employed was 10 μM for TEM-1 and 5 μM for all other enzymes. […] Data at 0 min of incubation were obtained by addition of enzyme to a premixed solution of inhibitor and substrate. Residual enzyme activity was determined for a range of inhibitor concentrations. Nonlinear regression fitting of IC50 curves was carried out using a three-parameter dose-response curve in GraphPad Prism. Errors in IC50 are expressed as [σ(log IC50)/log IC50)] × IC50.
45 Steady-state kinetics studies used a Pherastar FS microplate reader with UV-STAR® 96-well,
47 black, µclear® plates (Greiner Bio-One) for FC5 (1). Buffers employed were 100 mM
48 phosphate buffer pH 7.5, 0.01% (v/v) Triton X-100 for TEM-1, CTX-M-15 and AmpC, 100 mM
49 phosphate buffer pH 7.5, 50 mM sodium bicarbonate, 0.01% Triton X-100 for OXA-23 and
51 1 µM ZnSO4, 0.01% Triton X-100 for MBL assays. Reaction progress was monitored at 298 K
53 intensity (λex = 380 nm, λem = 480 nm) for FC5 (1). Suitable enzyme concentrations for
54 kinetic analysis were determined by monitoring changes in absorbance/fluorescence for
55 enzyme concentrations between 20 nM and 20 pM.
Kinetic constants were determined using the initial rate of hydrolysis with the
57 reaction initiated through the addition of enzyme to pre-prepared substrate concentrations.
58 Substrate concentrations ranged between 400 µM and 0.4 µM. The Michaelis-Menten
59 equation was fitted to data by non-linear regression using GraphPad Prism software to
60 calculate the Michaelis-Menten constant and the limiting rate (2).

[2] = with cyclic boronate 2 (10 mg/liter) supplementation
[3] = without cyclic boronate 2 supplementation
[4] = E. coli EC86, with cyclic boronate 2 (10 mg/liter) supplementation, read-out: MIC (mg/liter) for β-lactam
[5] = EC86, read-out: MIC (mg/liter) for β-lactam, E. coli EC86, without cyclic boronate 2 supplementation

Compound: CC1(C)S[C@@H]2[C@H](NC(=O)[C@H](N)c3ccccc3)C(=O)N2[C@H]1C(=O)O [AMP, ampicillin]
MIC [1, 2]: > 16 mg/L
MIC [1, 3]: > 16 mg/L
MIC (K. pneumoniae KP58; [2]): > 16 mg/L
MIC (K. pneumoniae KP58; [3]): > 16 mg/L
MIC (E. coli EC114, ST 131; [2]): > 16 mg/L
MIC (E. coli EC114, ST 131; [3]): > 16 mg/L
MIC (P. stuartii PS71; [2]): > 16 mg/L
MIC (P. stuartii PS71; [3]): > 16 mg/L
MIC (E. coli EC113, ST 131; [2]): ≤ 8 mg/L
MIC (E. coli EC113, ST 131; [3]): > 16 mg/L
MIC (K. pneumoniae KP41; [2]): > 16 mg/L
MIC (K. pneumoniae KP41; [3]): > 16 mg/L
MIC (mg/liter) for β-lactam (E. coli EC86; E. coli EC86, without cyclic boronate 2 supplementation): >16 mg/L
MIC (E. coli EC86; [4]): > 16 mg/L
MIC (K. pneumoniae KP15; [2]): > 16 mg/L
MIC (K. pneumoniae KP15; [3]): > 16 mg/L
MIC (A. baumannii AB14; [2]): > 16 mg/L
MIC (A. baumannii AB14; [3]): > 16 mg/L
MIC (E. coli EC107, ST 131; [2]): > 16 mg/L
MIC (E. coli EC107, ST 131; [3]): > 16 mg/L

Compound: NC(=O)[C@@H]1CC[C@@H]2CN1C(=O)N2OS(=O)(=O)O [Avibactam, avibactam]
IC50 (CTX-M-15; preincubation 0 min): 9.9 ± 0.2 nM
IC50 (CTX-M-15; preincubation 10 min): 1.1 ± 0.1 nM
IC50 (CTX-M-15; preincubation 30 min): 0.4 ± 0.06 nM
IC50 (CTX-M-15; preincubation 60 min): 0.39 ± 0.01 nM
IC50 (CTX-M-15; preincubation 360 min): 6.4 ± 0.1 nM

Compound: CC(C)(O/N=C(\C(=O)N[C@@H]1C(=O)N2C(C(=O)[O-])=C(C[n+]3ccccc3)CS[C@H]12)c1csc(N)n1)C(=O)O [CAZ, ceftazidime]
MIC [1, 2]: > 16 mg/L
MIC [1, 3]: > 16 mg/L
MIC (K. pneumoniae KP58; [2]): 2 mg/L
MIC (K. pneumoniae KP58; [3]): > 16 mg/L
MIC (E. coli EC114, ST 131; [2]): ≤ 1 mg/L
MIC (E. coli EC114, ST 131; [3]): > 16 mg/L
MIC (P. stuartii PS71; [2]): > 16 mg/L
MIC (P. stuartii PS71; [3]): > 16 mg/L
MIC (E. coli EC113, ST 131; [2]): ≤ 1 mg/L
MIC (E. coli EC113, ST 131; [3]): 8 mg/L
MIC (K. pneumoniae KP41; [2]): > 16 mg/L
MIC (K. pneumoniae KP41; [3]): > 16 mg/L
MIC (E. coli EC86; [5]): > 16 mg/L
MIC (E. coli EC86; [4]): 8 mg/L
MIC (K. pneumoniae KP15; [2]): 4 mg/L
MIC (K. pneumoniae KP15; [3]): > 16 mg/L
MIC (A. baumannii AB14; [2]): > 16 mg/L
MIC (A. baumannii AB14; [3]): > 16 mg/L
MIC (E. coli EC107, ST 131; [2]): ≤ 1 mg/L
MIC (E. coli EC107, ST 131; [3]): > 16 mg/L

Compound: CO/N=C(\C(=O)N[C@@H]1C(=O)N2C(C(=O)O)=C(CSc3nc(=O)c(=O)[nH]n3C)CS[C@H]12)c1csc(N)n1 [CRO, ceftriaxone]
MIC [1, 2]: > 32 mg/L
MIC [1, 3]: > 32 mg/L
MIC (E. coli EC114, ST 131; [2]): < 0.5 mg/L
MIC (E. coli EC114, ST 131; [3]): > 32 mg/L
MIC (P. stuartii PS71; [2]): 16 mg/L
MIC (P. stuartii PS71; [3]): > 32 mg/L
MIC (E. coli EC113, ST 131; [2]): < 0.5 mg/L
MIC (E. coli EC113, ST 131; [3]): > 32 mg/L
MIC (E. coli EC86; [5]): > 16 mg/L
MIC (E. coli EC86; [4]): 8 mg/L
MIC (A. baumannii AB14; [2]): > 32 mg/L
MIC (A. baumannii AB14; [3]): > 32 mg/L
MIC (E. coli EC107, ST 131; [2]): < 0.5 mg/L
MIC (E. coli EC107, ST 131; [3]): > 16 mg/L

Continued, values first:

MIC (E. coli EC86; [4]): 4 mg/L
Compound: C[C@@H](O)[C@H]1C(=O)N2C(C(=O)O)=C(S[C@@H]3CN[C@H](C(=O)Nc4cccc(C(=O)O)c4)C3)[C@H](C)[C@H]12 [ERT, ertapenem]

MIC [1, 2]: > 16 mg/L
MIC [1, 3]: > 16 mg/L
MIC (K. pneumoniae KP58; [2]): > 16 mg/L
MIC (K. pneumoniae KP58; [3]): > 16 mg/L
MIC (E. coli EC114, ST 131; [2]): 8 mg/L
MIC (P. stuartii PS71; [2]): 4 mg/L
MIC (P. stuartii PS71; [3]): > 16 mg/L
MIC (E. coli EC113, ST 131; [2]): 4 mg/L
MIC (K. pneumoniae KP41; [2]): > 16 mg/L
MIC (K. pneumoniae KP41; [3]): > 16 mg/L
MIC (K. pneumoniae KP15; [2]): > 16 mg/L
MIC (K. pneumoniae KP15; [3]): > 16 mg/L
MIC (A. baumannii AB14; [2]): > 16 mg/L
MIC (A. baumannii AB14; [3]): > 16 mg/L
MIC (E. coli EC107, ST 131; [2]): 8 mg/L
Compound: Cc1nnc(SCC2=C(C(=O)O)N3C(=O)[C@@H](NC(=O)Cn4cnnn4)[C@H]3SC2)s1 [FAZ, cefazolin]

MIC [1, 2]: > 32 mg/L
MIC [1, 3]: > 32 mg/L
MIC (K. pneumoniae KP58; [2]): > 32 mg/L
MIC (K. pneumoniae KP58; [3]): > 32 mg/L
MIC (E. coli EC114, ST 131; [2]): 8 mg/L
MIC (P. stuartii PS71; [2]): 8 mg/L
MIC (P. stuartii PS71; [3]): > 32 mg/L
MIC (E. coli EC113, ST 131; [2]): ≤ 4 mg/L
MIC (K. pneumoniae KP41; [2]): 32 mg/L
MIC (K. pneumoniae KP41; [3]): > 32 mg/L
MIC (E. coli EC86; [4]): ≤ 4 mg/L
MIC (K. pneumoniae KP15; [2]): ≤ 4 mg/L
MIC (K. pneumoniae KP15; [3]): > 32 mg/L
MIC (A. baumannii AB14; [2]): 32 mg/L
MIC (A. baumannii AB14; [3]): > 32 mg/L
MIC (E. coli EC107, ST 131; [2]): 8 mg/L
Compound: CO/N=C(\C(=O)N[C@@H]1C(=O)N2C(C(=O)[O-])=C(C[N+]3(C)CCCC3)CS[C@H]12)c1csc(N)n1 [FEP, cefepime]
